Patent US20140030808A1, “Method for Cellular RNA Expression” (BIONTECH AG, priority 2010, published 2014)

Legend:
[1] = system: Primary human foreskin fibroblasts (HFF); assay type: cell-based; details: 24 h supernatants
[2] = system: immature dendritic cells (iDCs); assay: GFP expression by flow cytometry in iDCs electroporated with IVT RNA; assay type: cell-based, human; details: 0.5 μM to 2 μM
Protocol: Human primary CD4 and CD 8 positive T-cells, as well as immature dendritic cells (iDCs) were isolated and electroporated with 5 μg IVT RNA encoding for destabilized GFP. iDCs were coelectroporated with 1 μg IVT RNA encoding for firefly luciferase. The cells were either left untreated or incubated with increasing amounts of C13H8N4OS (PKR-inhibitor) ranging from 0.5 μM to 2 μM as indicated in the panel legends. (A) T-cells and (B) iDCs were harvested at the indicated time points and GFP expression was assessed by flow cytometry. The mean fluorescence intensity (MFI) of the transfected, GFP-positive cell fractions is shown. (C) For luciferase assays, iDCs were plated in duplicates into 96-well-plates at a density of 10000 cells/well. Luciferase activity was measured at the indicated time points. Mean values of the duplicates are given.
(§1) For quantification of d2eGFP and eGFP protein, cells were washed in PBS, fixed using PBS supplemented with 2% formaldehyde and analyzed by flow cytometry on a FACS Canto II flow cytometer (BD Biosciences, Heidelberg, Germany). Gating was performed on living cells and mean fluorescence intensity (MFI) of GFP expressing cell populations was quantified using FlowJo software (Tree Star, Ashland, Oreg., USA). […] Gating was performed on living CD4+ and CD8+ T-cells and GFP expression and MFI of both T-cell subpopulations was determined by flow cytometry. […]

[3] = system: MEFs; assay: GFP expression by flow cytometry (MFI) in murine fibroblasts electroporated with IVT RNA; assay type: cell-based; details: 0.5 μM to 2 μM, mouse fibroblasts
Protocol: (AB) Primary human foreskin fibroblasts from different donors and suppliers (panel A: BJ fibroblasts; panel B CCD1079Sk) and (C) MEFs were electroporated with 0.5 μg IVT RNA encoding for firefly luciferase and 1.25 μg IVT RNA encoding for enhanced GFP (eGFP). The cells were plated into […] at a density of 250000 cells/well. The cells were either left untreated or incubated with increasing amounts of C13H8N4OS (PKR-inhibitor) ranging from 0.5 μM to 2 μM as indicated in the panel legends. GFP expression was measured by flow cytometry at the indicated time points. The mean fluorescence intensity (MFI) of the transfected GFP-positive cell fractions is shown.
Transfer of IVT-RNA into cells was performed by electroporation (EP). […]
as §1

In the case of O=C1Nc2ccc3ncsc3c2/C1=C/c1c[nH]cn1 [C13H8N4OS, 6,8-dihydro-8-(1H-imidazol-5-ylmethylene)-7H-pyrrolo[2,3-g]benzothiazol-7-one], the “secretion of IFNβ” value ([1]; 2 μM C13H8N4OS, HFF electroporated with eGFP IVT RNA) is reported as “remarkably enhanced”, the “secretion of IFNα” value ([1]; HFF, with or without 2 μM C13H8N4OS) is reported as “not observed” and the “GFP expression (MFI)” value [2] is reported as “Neither in T-cells nor in iDCs PKR inhibition led to an increased GFP expression”. The “GFP expression (MFI)” value [3] was “dose dependent increase”.
